Assay results reported in US20240158446A1, “CYCLIC COMPOUND HAVING SELECTIVE INHIBITORY ACTION ON KRAS OVER HRAS AND NRAS” (CHUGAI SEIYAKU KABUSHIKI KAISHA, priority 2021, published 2024).
Read-outs that look alike come from different tables or passages of the source. Where a SMILES comes first, the peptide text is derived from it. Bridges are numbered along the chain shown (N, C = ends). [ ]: non-standard residue; d: D form. The star is where a group is joined. hPhe(3,5-F2-4-CF3) = N[C@@H](CCc1cc(F)c(C(F)(F)F)c(F)c1)C(=O)O; NPrPhe(4-CF3) = CCCN[C@@H](Cc1ccc(C(F)(F)F)cc1)C(=O)O; NMeGly(cPent) = CN[C@H](C(=O)O)C1CCCC1; αMeF = C[C@](N)(Cc1ccccc1)C(=O)O; NMeD = CN[C@@H](CC(=O)O)C(=O)O; NMeL = CN[C@@H](CC(C)C)C(=O)O; Morpholide = C1CN(*)CCO1; Aze = O=C(O)[C@@H]1CCN1; Sar = CNCC(=O)O

Legend:
[1] = molecular target: GDP-bound NRAS wild-type protein (Homo sapiens, UniProt P01111); assay: Binding to NRAS by surface plasmon resonance (SPR), Single Cycle Kinetics; settings: SPR
GDP-bound NRAS wild-type protein, sequence (P01111 whole entry): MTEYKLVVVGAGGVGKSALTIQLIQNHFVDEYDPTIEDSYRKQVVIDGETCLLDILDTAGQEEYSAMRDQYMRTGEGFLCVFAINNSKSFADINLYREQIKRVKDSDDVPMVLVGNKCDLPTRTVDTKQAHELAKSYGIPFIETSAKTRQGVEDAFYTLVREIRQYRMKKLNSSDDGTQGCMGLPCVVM

[2] = molecular target: GDP-bound HRAS wild-type protein (Homo sapiens, UniProt P01112); assay: Binding to HRAS by surface plasmon resonance (SPR), Single Cycle Kinetics; settings: SPR
GDP-bound HRAS wild-type protein, sequence (P01112 whole entry): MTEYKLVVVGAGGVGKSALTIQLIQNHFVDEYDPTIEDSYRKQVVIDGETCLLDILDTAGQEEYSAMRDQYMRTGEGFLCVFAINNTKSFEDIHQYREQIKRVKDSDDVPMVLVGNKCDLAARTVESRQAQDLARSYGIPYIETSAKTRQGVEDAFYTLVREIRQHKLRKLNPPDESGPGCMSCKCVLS

[3] = system: human lung cancer strain NCI-H441;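 note: cell proliferation inhibition after four days measured by CellTiter-Glo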
[4] = GDP-bound NRAS wild-type protein vs GDP-bound KRAS wild-type protein
[5] = GDP-bound HRAS wild-type protein vs GDP-bound KRAS wild-type protein

IC50 [3] [nM] | IC50 ([3]; read-out: NCI-H441 cell proliferation inhibitory activity, 50% proliferation inhibitory concentration (IC50 value), NCI-H441, four days, CellTiter-Glo) [nM] | Structure (SMILES) | NRAS/KRAS (ratio of KD value for NRAS to KD value for KRAS) [1, 4] | HRAS/KRAS (ratio of KD value for HRAS to KD value for KRAS) [2, 5] | NRAS/KRAS (ratio of KD value with respect to NRAS to KD value with respect to KRAS) [1, 4] | HRAS/KRAS (ratio of KD value with respect to HRAS to KD value with respect to KRAS) [2, 5] | ratio of the KD value with respect to GDP-bound NRAS wild-type protein to the KD value with respect to KRAS ([1]; KD(NRAS)/KD(KRAS)) | ratio of the KD value with respect to GDP-bound HRAS wild-type protein to the KD value with respect to KRAS ([2]; KD(HRAS)/KD(KRAS))
29.7 | – | CCC[C@H]1C(=O)N[C@@H]([C@@H](C)CC)C(=O)N(C)CC(=O)N(C)[C@H]2C/C=C\CCN(C2=O)[C@@H](Cc2ccc(C)cc2)C(=O)N(C)CC(=O)N[C@@H](CCc2ccc(C(F)(F)F)c(OC)c2)C(=O)N2CC3(CC3)C[C@H]2C(=O)NC2(CC(C)(C)C2)C(=O)N(C)[C@@H](CC(C)C)C(=O)N(C)[C@H](C(=O)N(C)C)CC(=O)N1C [PP3013] | AA (a compound having 20 or more is denoted as AA) | B (a compound having 3 or more and less than 10 is denoted as B) | – | – | – | –
546 | – | CCCN1C(=O)CN(C)C(=O)[C@@H]2CCN2C(=O)[C@H]([C@@H](C)CC)NC(=O)[C@H](CC(C)C)N(C)C(=O)C[C@@H](C(=O)N2CCOCC2)N(C)C(=O)[C@H](C2CCCC2)N(C)C(=O)[C@](C)(Cc2ccccc2)NC(=O)[C@@H]2CCCN2C(=O)[C@H](CCc2cc(F)c(C(F)(F)F)c(F)c2)NC(=O)CN(C)C(=O)[C@@H]1Cc1ccc(C(F)(F)F)cc1 [PP0778] ([NMeL]I[Aze][Sar][NPrPhe(4-CF3)][Sar][hPhe(3,5-F2-4-CF3)]P[αMeF][NMeGly(cPent)][NMeD]-Morpholide; lactam N-11) | – | – | B (a compound having 3 or more and less than 10 is denoted as B) | B (a compound having 3 or more and less than 10 is denoted as B) | – | –
– | 3.7 | CC[C@H](C)[C@@H]1NC(=O)[C@@H]2CCCc3ccc(cc3)C[C@@H](C(=O)N(C)CC(=O)N[C@@H](CCc3ccc(C(F)(F)F)c(OC)c3)C(=O)N3C[C@H](OC(C)C)C[C@H]3C(=O)NC3(CC(C)(C)C3)C(=O)N(C)[C@@H](C3CCCC3)C(=O)N(C)[C@H](C(=O)N(C)CC)CC(=O)N2C)N2CC/C=C\C[C@@H](C2=O)N(C)C(=O)CN(C)C1=O [PP3084] | A (a compound having 10 or more and less than 20 is denoted as A) | B (a compound having 3 or more and less than 10 is denoted as B) | – | – | A (a compound having 10 or more and less than 20 is denoted as A) | B (a compound having 3 or more and less than 10 is denoted as B)
40.5 | – | CCO[C@@H]1C[C@H]2C(=O)NC3(CCC3)C(=O)N(C)[C@@H](C3CCCC3)C(=O)N(C)[C@H](C(=O)N(C)C)CC(=O)N(C)[C@@H](CC)C(=O)N[C@@H]([C@@H](C)CC)C(=O)N(C)CC(=O)N(C)[C@H]3CCCCCN(C3=O)[C@@H](Cc3ccc(F)c(C)c3)C(=O)N(C)CC(=O)N[C@@H](CCc3cc(F)c(C(F)(F)F)c(F)c3)C(=O)N2C1 [PP0912] | B (a compound having 3 or more and less than 10 is denoted as B) | B (a compound having 3 or more and less than 10 is denoted as B) | – | – | – | –
25.2 | – | CCO[C@@H]1C[C@H]2C(=O)NC3(CCC3)C(=O)N(C)[C@@H](C3CCCC3)C(=O)N(C)[C@H](C(=O)N3CCOCC3)CC(=O)N(C)[C@@H](CC(C)C)C(=O)N[C@@H]([C@@H](C)CC)C(=O)N(C)CC(=O)N(C)[C@H]3CCCCCN(C3=O)[C@@H](Cc3ccc(F)c(F)c3)C(=O)N(C)CC(=O)N[C@@H](CCc3cc(F)c(C(F)(F)F)c(F)c3)C(=O)N2C1 [PP0917] | B (a compound having 3 or more and less than 10 is denoted as B) | B (a compound having 3 or more and less than 10 is denoted as B) | – | – | – | –
